Source: PubChem BioAssay (NCI)
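The compound was tested at five concentrations on cells cultured in 96-well plates, with a 48-hour exposure period. The concentration for 50% growth inhibition is given as GI50. TGI: total growth inhibition.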

Columns and labels:
Test in all cases: inhibition of tumour cell growth, NCI panel, 48 h
SNB-75 CNS = system: SNB-75 CNS
HL-60(TB) leukemia = system: HL-60(TB) leukemia
NCI-H23 lung = system: NCI-H23 lung
RPMI-8226 leukemia = system: RPMI-8226 leukemia
CAKI-1 renal = system: CAKI-1 renal
MDA-MB-231 breast = system: MDA-MB-231 breast
COLO 205 colon = system: COLO 205 colon
SK-MEL-2 melanoma = system: SK-MEL-2 melanoma
UO-31 renal = system: UO-31 renal
EKVX NSCLC = system: EKVX NSCLC
KM12 colon = system: KM12 colon
HCT-15 colon = system: HCT-15 colon
SF-295 CNS = system: SF-295 CNS
U251 CNS = system: U251 CNS
MALME-3M melanoma = system: MALME-3M melanoma
NCI-H522 lung = system: NCI-H522 lung
SW-620 colon = system: SW-620 colon
ACHN renal = system: ACHN renal
SF-268 CNS = system: SF-268 CNS
MCF7 breast = system: MCF7 breast
A549 NSCLC = system: A549 NSCLC
CCRF-CEM leukemia = system: CCRF-CEM leukemia
HT29 colon = system: HT29 colon
BT-549 breast = system: BT-549 breast
RXF 393 renal = system: RXF 393 renal
DU-145 prostate = system: DU-145 prostate
SNB-19 CNS = system: SNB-19 CNS
HOP-62 NSCLC = system: HOP-62 NSCLC
K-562 leukemia = system: K-562 leukemia
PC-3 prostate = system: PC-3 prostate
UACC-257 melanoma = system: UACC-257 melanoma
MDA-MB-435 = system: MDA-MB-435
SK-OV-3 ovarian = system: SK-OV-3 ovarian
SK-MEL-28 melanoma = system: SK-MEL-28 melanoma
786-0 renal = system: 786-0 renal
SF-539 CNS = system: SF-539 CNS
NCI-H226 lung = system: NCI-H226 lung
IGROV1 ovarian = system: IGROV1 ovarian
M14 melanoma = system: M14 melanoma
MOLT-4 leukemia = system: MOLT-4 leukemia
OVCAR-5 ovarian = system: OVCAR-5 ovarian
OVCAR-8 ovarian = system: OVCAR-8 ovarian
HCT-116 colon = system: HCT-116 colon
NCI/ADR-RES ovarian = system: NCI/ADR-RES ovarian
SK-MEL-5 melanoma = system: SK-MEL-5 melanoma
HCC-2998 colon = system: HCC-2998 colon
SN12C renal = system: SN12C renal
UACC-62 melanoma = system: UACC-62 melanoma
TK-10 renal = system: TK-10 renal
OVCAR-4 ovarian = system: OVCAR-4 ovarian
LOX IMVI melanoma = system: LOX IMVI melanoma
HOP-92 NSCLC = system: HOP-92 NSCLC
HS 578T breast = system: HS 578T breast
SR leukemia = system: SR leukemia
NCI-H460 lung = system: NCI-H460 lung
T-47D breast = system: T-47D breast

C=C(C=O)[C@@H]1CC[C@]2(C)[C@H](CC=C3[C@H]4[C@@H](C)[C@H](C)CC[C@]4(C(=O)OC)CC[C@]32C)[C@@]1(C)CCC#N
GI50 (SNB-75 CNS): 1550 nM
TGI (SNB-75 CNS): 3010 nM
GI50 (HL-60(TB) leukemia): 2260 nM
TGI (HL-60(TB) leukemia): 5950 nM
GI50 (NCI-H23 lung): 1810 nM
TGI (NCI-H23 lung): 3590 nM
GI50 (RPMI-8226 leukemia): 1610 nM
TGI (RPMI-8226 leukemia): 5710 nM
GI50 (CAKI-1 renal): 1560 nM
TGI (CAKI-1 renal): 3160 nM
GI50 (MDA-MB-231 breast): 1790 nM
TGI (MDA-MB-231 breast): 3760 nM
GI50 (COLO 205 colon): 1800 nM
TGI (COLO 205 colon): 3550 nM
GI50 (SK-MEL-2 melanoma): 1710 nM
TGI (SK-MEL-2 melanoma): 3210 nM
GI50 (UO-31 renal): 1480 nM
TGI (UO-31 renal): 2810 nM
GI50 (EKVX NSCLC): 1890 nM
TGI (EKVX NSCLC): 3710 nM
GI50 (KM12 colon): 1600 nM
TGI (KM12 colon): 3060 nM
GI50 (HCT-15 colon): 1470 nM
TGI (HCT-15 colon): 3070 nM
GI50 (SF-295 CNS): 1340 nM
TGI (SF-295 CNS): 2670 nM
GI50 (U251 CNS): 1680 nM
TGI (U251 CNS): 3120 nM
GI50 (MALME-3M melanoma): 1960 nM
TGI (MALME-3M melanoma): 3690 nM
GI50 (NCI-H522 lung): 1760 nM
TGI (NCI-H522 lung): 3310 nM
GI50 (SW-620 colon): 1760 nM
TGI (SW-620 colon): 3360 nM
GI50 (ACHN renal): 1640 nM
TGI (ACHN renal): 3020 nM
GI50 (SF-268 CNS): 1990 nM
TGI (SF-268 CNS): 3570 nM
GI50 (MCF7 breast): 1610 nM
TGI (MCF7 breast): 4090 nM
GI50 (A549 NSCLC): 3490 nM
TGI (A549 NSCLC): 14800 nM
GI50 (CCRF-CEM leukemia): 1420 nM
TGI (CCRF-CEM leukemia): 9470 nM
GI50 (HT29 colon): 1590 nM
TGI (HT29 colon): 3470 nM
GI50 (BT-549 breast): 1620 nM
TGI (BT-549 breast): 3240 nM
GI50 (RXF 393 renal): 1990 nM
TGI (RXF 393 renal): 3550 nM
GI50 (DU-145 prostate): 1940 nM
TGI (DU-145 prostate): 3750 nM
GI50 (SNB-19 CNS): 1940 nM
TGI (SNB-19 CNS): 4160 nM
GI50 (HOP-62 NSCLC): 1960 nM
TGI (HOP-62 NSCLC): 3900 nM
GI50 (K-562 leukemia): 2830 nM
TGI (K-562 leukemia): > 100000 nM
GI50 (PC-3 prostate): 1200 nM
TGI (PC-3 prostate): 3100 nM
GI50 (UACC-257 melanoma): 1820 nM
TGI (UACC-257 melanoma): 3530 nM
GI50 (MDA-MB-435): 1810 nM
TGI (MDA-MB-435): 3530 nM
GI50 (SK-OV-3 ovarian): 2390 nM
TGI (SK-OV-3 ovarian): 5260 nM
GI50 (SK-MEL-28 melanoma): 1810 nM
TGI (SK-MEL-28 melanoma): 3330 nM
GI50 (786-0 renal): 1730 nM
TGI (786-0 renal): 3290 nM
GI50 (SF-539 CNS): 1930 nM
TGI (SF-539 CNS): 3490 nM
GI50 (NCI-H226 lung): 1810 nM
TGI (NCI-H226 lung): 3940 nM
GI50 (IGROV1 ovarian): 1820 nM
TGI (IGROV1 ovarian): 3750 nM
GI50 (M14 melanoma): 1790 nM
TGI (M14 melanoma): 3840 nM
GI50 (MOLT-4 leukemia): 2660 nM
TGI (MOLT-4 leukemia): 12600 nM
GI50 (OVCAR-5 ovarian): 2160 nM
TGI (OVCAR-5 ovarian): 4890 nM
GI50 (OVCAR-8 ovarian): 1900 nM
TGI (OVCAR-8 ovarian): 3890 nM
GI50 (HCT-116 colon): 1490 nM
TGI (HCT-116 colon): 3050 nM
GI50 (NCI/ADR-RES ovarian): 1950 nM
TGI (NCI/ADR-RES ovarian): 4580 nM
GI50 (SK-MEL-5 melanoma): 1740 nM
TGI (SK-MEL-5 melanoma): 3140 nM
GI50 (HCC-2998 colon): 1630 nM
TGI (HCC-2998 colon): 3110 nM
GI50 (SN12C renal): 1820 nM
TGI (SN12C renal): 3830 nM
GI50 (UACC-62 melanoma): 1590 nM
TGI (UACC-62 melanoma): 3590 nM
GI50 (TK-10 renal): 1610 nM
TGI (TK-10 renal): 3320 nM
GI50 (OVCAR-4 ovarian): 3070 nM
TGI (OVCAR-4 ovarian): 10700 nM
GI50 (LOX IMVI melanoma): 1610 nM
TGI (LOX IMVI melanoma): 3080 nM
GI50 (HOP-92 NSCLC): 1300 nM
TGI (HOP-92 NSCLC): 2640 nM
GI50 (HS 578T breast): 2530 nM
TGI (HS 578T breast): 5980 nM
GI50 (SR leukemia): 1860 nM
TGI (SR leukemia): > 100000 nM
GI50 (NCI-H460 lung): 1880 nM
TGI (NCI-H460 lung): 3540 nM
GI50 (T-47D breast): 1340 nM
TGI (T-47D breast): 5540 nM
